Laboratory results reported in US9597323B2, “Aminoester derivatives” (CHIESI FARMACEUTICI S.p.A., priority 2015, dated 2017).
Like-named read-outs stand apart in the source and are kept apart here.

Key:
Human M3 receptor = molecular target: T1, Human M3 receptor (Homo sapiens, UniProt P20309); test: M3 Receptor radioligand binding assay; details: for Ki: calculated from IC50 by Cheng and Prusoff equation
T1 construct: purchased Perkin Elmer
Procedure: M3 Receptor Radioligand Binding Assay:
The assay is carried out in 96-well polypropylene plates in a volume of 250 μl. […] The final assay concentration of DMSO is 0.5% (v/v). The plates are sealed and incubated for 2 h at room temperature on an orbital shaker (slow speed). Membranes are harvested onto 96-well unifilter GF/C filter plates pre-treated with 0.5% polyethyleneimine (v/v), using a filter manifold, washed four times with 200 μl of assay buffer. The plates are dried before addition of 50 μl of microscint-0, sealed then read in a Trilux Microbeta scintillation counter. IC50 values are determined from competition curves using a non-linear curve fitting program. Ki values are calculated from IC50 values by the Cheng and Prusoff equation.

Human recombinant PDE4B2 = Human recombinant PDE4B2 (Homo sapiens, UniProt Q07343); test: PDE4B2 HTRF assay; assay type: biochemical
Chain of Human recombinant PDE4B2 (Q07343 1-564 isoform Q07343-2): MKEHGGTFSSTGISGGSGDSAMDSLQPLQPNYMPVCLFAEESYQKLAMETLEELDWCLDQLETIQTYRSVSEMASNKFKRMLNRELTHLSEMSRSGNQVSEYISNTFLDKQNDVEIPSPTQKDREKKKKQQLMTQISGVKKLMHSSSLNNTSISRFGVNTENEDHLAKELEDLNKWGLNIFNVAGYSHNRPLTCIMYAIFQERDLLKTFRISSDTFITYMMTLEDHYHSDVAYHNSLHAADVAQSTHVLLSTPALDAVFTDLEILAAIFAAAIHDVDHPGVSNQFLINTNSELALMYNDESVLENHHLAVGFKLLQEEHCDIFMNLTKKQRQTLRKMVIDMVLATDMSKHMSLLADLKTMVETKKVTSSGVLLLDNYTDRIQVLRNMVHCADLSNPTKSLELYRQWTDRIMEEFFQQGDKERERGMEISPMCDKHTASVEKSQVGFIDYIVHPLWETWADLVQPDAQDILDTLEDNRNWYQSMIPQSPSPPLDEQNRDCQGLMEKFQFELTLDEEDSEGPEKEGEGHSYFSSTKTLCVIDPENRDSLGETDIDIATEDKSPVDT
Procedure: PDE4B2 activity is detected using the LANCE Ultra cAMP homogeneous time resolved fluorescence resonance energy transfer (TR-FRET) assay from Perkin Elmer. The assay is based on the competition between the europium (Eu) chelate-labeled cAMP tracer and sample cAMP for binding sites on cAMP-specific monoclonal antibodies (mAb) labelled with the ULight™ dye. The assay is carried out in 384-well low volume plates in a volume of 10 μl. Human recombinant PDE4B2 (80 pM) is incubated for 2 h with 3 nM cAMP in buffer containing 1×HBSS, 5 mM HEPES, 3 mM MgCl2, 0.1% BSA, pH 7.4 with or without test compounds. The enzymatic reactions are efficiently stopped by the addition of 500 μM IBMX present in the combined Stop/Detection buffer containing europium (Eu) chelate-labeled cAMP tracer and cAMP-specific monoclonal antibodies (mAb) labelled with the ULight™ dye. […] IC50 values are determined from competition curves using a non-linear curve fitting program.

[1] = test system: Cch-evoked bronchoconstriction; test: Bronchospasm, percentage of inhibition (Cch-induced bronchoconstriction in rats); assay type: in vivo, rat; details: for inhibition at 16 h: 16 h after intratracheal administration of the sub-maximal inhibition dose; for sub-maximal inhibition Dose [inhibition at 1 h]: dose producing about 80% inhibition of the bronchospasm after 1 h, intratracheal
Procedure: Protocol of Bronchospasm-Percentage of Inhibition Animals Male CD Sprague Dawley rats (220-250 g) were purchased from Charles River Laboratories Italy (Calco, Lecco). Prior to use animals were acclimated for at least 5 days to the local vivarium conditions (room temperature: 20-24° C.; relative humidity: 40-70%), having free access to standard rat chow and softened tap water. All the procedures were performed in animal operating rooms according to ethical guidelines for the conduct of animal research (D. L.vo 116/92). […] Animals were anaesthetized with Urethane (1.2 g/kg, i.p.) and a laryngoscope was moved forward into the mouth to visualize the trachea and guide the insertion of the tip of a custom made small diameter cannula directly into the trachea and located 1-2 mm above the bifurcation. […] The target concentration was obtained by dilution of the DMSO stock in saline. Test compounds were instilled locally into the trachea in a volume of 125 μl. Experimental Procedure In order to assess the residual inhibitory activity of test compounds at 1 to 16 hours after their administration, rats were surgically prepared. In order to assess the Cch-induced bronchoconstriction in rats, the infusion of physiological solution was stopped and the bronchospastic agent injected into the jugular vein using the same cannula. Soon after washing the cannula with saline to ensure the complete administration of the bronchoconstrictor agent, the saline infusion was started again. Body temperature was kept constant at 37° C. by a heated blanket. The trachea was cannulated and the lungs were ventilated artificially with a small animal constant volume ventilator (rodent ventilator mod. 7025, Ugo Basile, Comerio, Varese, Italy) at a frequency of 80 strokes/min and at a tidal volume of 2.5 ml/kg. To avoid spontaneous breathing, the animals were injected intravenously (i.v.) with pancuronium bromide (2 mg/kg). Bronchoconstriction was induced by the i.v. injection of Cch 50 μg/kg. In control experiments, repeated injections of this dose produced reproducible short-lasting (1-2 min duration) bronchospasms. Bronchoconstriction, quantified as a reduction of tidal volume, was evaluated according to the method described by Konzett & Roessler in Konzett H. and Roessler R. (1940). Versuchanornungzu untersuchungen […]. Arch. Exp. Path. Pharmak.; 195:71-74, which is incorporated herein by reference in its entirety. Systemic blood pressure and changes in airway resistance were monitored with a digital pressure transducer connected to a bridge amplifier (PowerLab; Ugo Basile, Italy) and recorded using Chart 5 software (Ugo Basile, Italy). […] The effect of test compounds was expressed as % inhibition of Cch-evoked bronchoconstriction in time-matched, vehicle-treated, animals (controls).

COPD patients = details: cited from earlier work
[2] = patients with severe disease, frequent exacerbations and mucus hypersecretion

T1 sequence (P20309 whole entry): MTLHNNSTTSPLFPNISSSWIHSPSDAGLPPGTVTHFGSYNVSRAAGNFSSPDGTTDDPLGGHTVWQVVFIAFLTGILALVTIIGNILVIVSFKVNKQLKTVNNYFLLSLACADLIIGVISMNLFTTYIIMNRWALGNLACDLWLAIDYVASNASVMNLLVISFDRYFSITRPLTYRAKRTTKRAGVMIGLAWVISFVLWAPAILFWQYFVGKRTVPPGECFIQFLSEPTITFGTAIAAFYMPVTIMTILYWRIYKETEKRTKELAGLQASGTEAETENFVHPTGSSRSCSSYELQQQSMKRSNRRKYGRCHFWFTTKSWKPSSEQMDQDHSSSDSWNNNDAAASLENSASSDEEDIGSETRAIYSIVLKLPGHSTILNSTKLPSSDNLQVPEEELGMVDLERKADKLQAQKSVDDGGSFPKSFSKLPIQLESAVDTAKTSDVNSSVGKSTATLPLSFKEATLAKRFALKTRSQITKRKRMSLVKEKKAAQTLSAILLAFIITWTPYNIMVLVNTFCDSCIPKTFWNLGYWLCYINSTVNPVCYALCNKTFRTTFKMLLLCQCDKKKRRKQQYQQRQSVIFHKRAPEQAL

Work on `COc1ccc([C@H](Cc2c(Cl)c[n+]([O-])cc2Cl)OC(=O)c2ccc(CNC(C(=O)OCC3CCN(C)CC3)c3ccccc3)cc2)cc1OC` (single isomer, unassigned) [Example 7] yielded a Ki (Human M3 receptor) of 0.45 nM, an IC50 (Human M3 receptor; read-out: M3 IC50) of 0.9 nM and an IC50 (Human M3 receptor; read-out: M3 IC50 activity) of less than 1 nM. The IC50 (Human recombinant PDE4B2) was 1 to 10 nM, the “inhibition at 16 h” value [1] was greater than 90% and the “sub-maximal inhibition Dose [inhibition at 1 h]” value [1] was 30 nmol/kg.
`COc1ccc([C@H](Cc2c(Cl)c[n+]([O-])cc2Cl)OC(=O)c2cccc(CNC(C(=O)OCC3CCN(C)CC3)c3ccccc3)c2)cc1OC` (stereo partly drawn) [Example 5, [(1S)-2-(3,5-dichloro-1-oxido-pyridin-1-ium-4-yl)-1-(3,4-dimethoxyphenyl)ethyl] 3-[[[2-[(1-methyl-4-piperidyl)-methoxy]-2-oxo-1-phenyl-ethyl]amino]methyl]benzoate] gave an IC50 (Human M3 receptor; read-out: M3 IC50 activity) of 1 to 10 nM and an IC50 (Human recombinant PDE4B2) of 1 to 10 nM.
For `O=C(Nc1c(Cl)cncc1Cl)c1ccc(OC(F)F)c(OCC2CC2)c1` [roflumilast], the “reduction of numbers of neutrophils in sputum” value (COPD patients; COPD patients, oral, over four weeks) is given as 36%, the “improvement of FEV 1” value (COPD patients; [2]) is given as “approximately 50 mL” and the reduction of exacerbation (COPD patients; [2]) is given as “about 15%”.
With `COc1ccc([C@H](Cc2c(Cl)c[n+]([O-])cc2Cl)OC(=O)c2ccc(CNC(C(=O)OCC3CCN(C)CC3)c3ccccc3)cc2)cc1OC` (single isomer, unassigned) [Example 2] the IC50 (Human M3 receptor; read-out: M3 IC50 activity) was 1 to 10 nM and the IC50 (Human recombinant PDE4B2) was 1 to 10 nM.
`COc1ccc([C@H](Cc2c(Cl)c[n+]([O-])cc2Cl)OC(=O)c2cccc(CNC(C(=O)OCC3CCN(C)CC3)c3ccccc3)c2)cc1OC` (mixture of isomers) [Example 1, [(1S)-2-(3,5-dichloro-1-oxido-pyridin-1-ium-4-yl)-1-(3,4-dimethoxyphenyl)ethyl] 3-[[[2-[(1-methyl-4-piperidyl)methoxy]-2-oxo-1-phenyl-ethyl]amino]methyl]benzoate] gave an IC50 (Human M3 receptor; read-out: M3 IC50 activity) of 1 to 10 nM and an IC50 (Human recombinant PDE4B2) of less than 1 nM.
In the case of `COc1ccc([C@H](Cc2c(Cl)c[n+]([O-])cc2Cl)OC(=O)c2ccc(CNC(C(=O)OC3CCN(C)CC3)c3ccccc3)cc2)cc1OC` (single isomer, unassigned) [Example 7C, reference compound], the Ki (Human M3 receptor) is reported as 0.09 nM, the IC50 (Human M3 receptor; read-out: M3 IC50) is reported as 0.17 nM and the “inhibition at 16 h” value [1] is reported as less than 10%. For the same molecule, the “sub-maximal inhibition Dose [inhibition at 1 h]” value [1] was 3 nmol/kg.
Work on `COc1ccc([C@H](Cc2c(Cl)c[n+]([O-])cc2Cl)OC(=O)c2ccc(CNC(C(=O)OCC3CCN(C)CC3)c3cccc(O)c3)cc2)cc1OC` (stereo partly drawn) [Example 11, [(1S)-2-(3,5-dichloro-1-oxido-pyridin-1-ium-4-yl)-1-(3,4-dimethoxyphenyl)ethyl] 4-[[[1-(3-hydroxyphenyl)-2-[(1-methyl-4-piperidyl)-methoxy]-2-oxo-ethyl]amino]methyl]benzoate] yielded an IC50 (Human M3 receptor; read-out: M3 IC50 activity) of 1 to 10 nM and an IC50 (Human recombinant PDE4B2) of 1 to 10 nM.
